BindingDB's records for doi:10.7270/Q2M043TQ (Nmmlsc, 2010)
pEC50: −log10 of the molar value.

Molecular target: T1, Regulator of G-protein signaling 8 (Homo sapiens, UniProt P57771)
T1 sequence (P57771 whole entry): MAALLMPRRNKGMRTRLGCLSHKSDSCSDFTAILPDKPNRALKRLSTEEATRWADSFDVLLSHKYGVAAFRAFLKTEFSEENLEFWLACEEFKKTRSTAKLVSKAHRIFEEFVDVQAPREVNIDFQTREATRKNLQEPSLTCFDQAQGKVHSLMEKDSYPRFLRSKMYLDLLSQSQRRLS
Assay: small molecules altering RGS8 binding of Galphao – biochemical, multiplex bead flow cytometry, SAR compounds, SAR follow-up (AID 2307)
Details: not given

pEC50 | Structure (SMILES)
7.68 | CN1CCN(C2=C(Cl)C(=O)C(c3cnc(N4CCCCC4)s3)=C(Cl)C2=O)CC1
6.24 | CCN=c1scc(C)n1N=Cc1ccc(O)c(O)c1O
6.39 | CCN(CC)S(=O)(=O)c1cccc(C(=O)NN=Cc2ccc(O)c(O)c2O)c1
6.28 | Cc1[nH]n(-c2ccccc2)c(=S)c1C=NCCCN=Cc1c(C)[nH]n(-c2ccccc2)c1=S
5.50 | Cc1cccc(N2CCN(C(=O)COc3nsc4nc(C)cc(C)c34)CC2C)c1 (configuration not stated)
< 4.52 | Cc1cccc(N2CCN(C(=O)Cn3ccc4nc(C)cc(C)c4c3=O)CC2C)c1 (configuration not stated) [2,4-dimethyl-6-[2-[3-methyl-4-(3-methylphenyl)piperazin-1-yl]-2-oxidanylidene-ethyl]-1,6-naphthyridin-5-one]
< 4.52 | Cc1cc(C)c2c(=O)n(CC(=O)N3CCN(c4ccccc4)CC3)ccc2n1 [2,4-dimethyl-6-[2-oxidanylidene-2-(4-phenylpiperazin-1-yl)ethyl]-1,6-naphthyridin-5-one]
< 4.52 | Cc1cc(C)c2c(n1)CCN(CC(=O)N1CCN(c3ccccc3)CC1)C2=O [2,4-dimethyl-6-[2-oxidanylidene-2-(4-phenylpiperazin-1-yl)ethyl]-7,8-dihydro-1,6-naphthyridin-5-one]
7.54 | O=c1c2ccccc2sn1-c1ccc(S(=O)(=O)N2CCCC2)cc1 [2-(4-pyrrolidin-1-ylsulfonylphenyl)-1,2-benzothiazol-3-one]
6.26 | Cc1cccc(N2CCN(C(=O)Cn3sc4nc(C)cc(C)c4c3=O)CC2C)c1 (configuration not stated) [2-[2-keto-2-[3-methyl-4-(m-tolyl)piperazino]ethyl]-4,6-dimethyl-isothiazolo[5,4-b]pyridin-3-one]
< 4.52 | Cc1cccc(N2CCN(C(=O)COc3noc4nc(C)cc(C)c34)CC2C)c1 (configuration not stated) [2-[(4,6-dimethyl-[1,2]oxazolo[5,4-b]pyridin-3-yl)oxy]-1-[3-methyl-4-(3-methylphenyl)piperazin-1-yl]ethanone]
< 4.52 | O=c1c2ccccc2sn1-c1ccccc1 [2-phenyl-1,2-benzothiazol-3-one]
5.50 | CCN(CC)S(=O)(=O)c1cccc(-c2n[nH]c(=S)n2N=Cc2ccc(C(=O)OC)cc2)c1 [4-[(E)-[3-[3-(diethylsulfamoyl)phenyl]-5-thioxo-1H-1,2,4-triazol-4-yl]iminomethyl]benzoic acid methyl ester]
7.54 | NS(=O)(=O)c1ccc(N=NCc2ccc(O)c(O)c2O)c([N+](=O)[O-])c1 [4-[[(E)-(2,3-dihydroxy-4-oxo-1-cyclohexa-2,5-dienylidene)methyl]hydrazo]-3-nitrobenzenesulfonamide]
6.50 | CN=c1scc(C)n1N=Cc1ccc(O)c(O)c1O [(4E)-2,3-dihydroxy-4-[[(4-methyl-2-methylimino-1,3-thiazol-3-yl)amino]methylidene]cyclohexa-2,5-dien-1-one]
6.66 | Cc1[nH]n(-c2ccccc2)c(=S)c1/C=N/c1cccc([N+](=O)[O-])c1 [(4E)-5-methyl-4-[(3-nitroanilino)methylene]-2-phenyl-2-pyrazoline-3-thione]
< 4.52 | Cc1cccc(N2CCN(C(=O)CN3CCc4nc(C)cc(C)c4C3=O)CC2C)c1 (configuration not stated) [KUC103675N]
7.07 | CC(=O)OCCCNc1cc(Sc2nc3ccccc3s2)c2nonc2c1[N+](=O)[O-] [MLS000521052]
6.90 | Cc1cc(Cl)ccc1/N=c1/ssnc1Cl [MLS000539990]
7.11 | O=C1C(Cl)=C(N2CCCCC2)C(=O)C(Cl)=C1c1cnc(N2CCCCC2)s1 [MLS000550549]
5.36 | CCC(=O)NC(c1ccc(C)cc1)c1cc([N+](=O)[O-])c2cccnc2c1O (configuration not stated) [MLS000553854]
6.75 | COc1ccc(C2=CC(=O)C=CC2=O)cc1 [MLS001029846]
6.91 | O=C(COc1ccccc1C(=O)NN=Cc1ccc(O)c(O)c1)NN=Cc1ccc(O)c(O)c1 [N''-[(Z)-(3-hydroxy-4-oxo-1-cyclohexa-2,5-dienylidene)methyl]-2-[2-[[(Z)-(3-hydroxy-4-oxo-1-cyclohexa-2,5-dienylidene)methyl]hydrazo]-2-oxoethoxy]benzohydrazide]
6.15 | CC1(C)OC(=O)C(=Cc2ccc(-c3ccc(S(N)(=O)=O)cc3)o2)C(=O)O1 [SMR000273939]
6.42 | O=C(Cc1csc(N2CCOCC2)n1)NN=Cc1ccc(O)c(O)c1O [SMR000369439]
6.31 | Nc1c(C(=O)NCC2CCCO2)sc2nc3c(c(-c4ccco4)c12)CC/C3=C/c1ccco1 (configuration not stated) [UNM-0000305796]

Same assay, conditions: inactive by the depositor's call

pEC50 | Structure (SMILES)
5.43 | CCOc1ccccc1-c1c2cc(O)c(=O)cc-2oc2cc(O)c(O)cc12 [MLS000578271]
